Reference: US11377442B2, “Small molecule agonists and antagonists of NR2F6 activity” (ZANDER THERAPEUTICS, INC., priority 2016, dated 2022)

Key:
Type in all cases: cell-based
NR2F6 = target: T1, NR2F6 (Homo sapiens, UniProt P10588); experiment: NR2F6 agonist screening, Firefly signal cmpd/DMSO; settings: Table 15
T1 construct: expressed in transfected cells; also transient transfection
T1 sequence (P10588 1-404): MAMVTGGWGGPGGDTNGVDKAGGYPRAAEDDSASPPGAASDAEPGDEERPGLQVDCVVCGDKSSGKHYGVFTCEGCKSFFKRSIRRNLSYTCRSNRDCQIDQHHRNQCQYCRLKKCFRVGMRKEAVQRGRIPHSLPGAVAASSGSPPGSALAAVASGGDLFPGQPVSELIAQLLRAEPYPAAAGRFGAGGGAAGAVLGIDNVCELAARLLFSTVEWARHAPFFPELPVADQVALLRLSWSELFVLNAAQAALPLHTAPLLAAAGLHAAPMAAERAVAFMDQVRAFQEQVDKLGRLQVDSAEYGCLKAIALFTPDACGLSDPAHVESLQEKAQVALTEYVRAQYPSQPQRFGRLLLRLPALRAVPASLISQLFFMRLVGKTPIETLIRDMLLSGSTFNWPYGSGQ

Renilla = Renilla signal in NR2F6 agonist screening, cmpd/DMSO; settings: Renilla, Table 15, read-out: Renilla F4, cmpd/DMSO (mean)
Renilla_ERa = experiment: Renilla signal in ERα counterscreen (Renilla_ERa); settings: Table 15, read-out: Renilla ERalpha transient, cmpd/DMSO (mean)
ERα [1] = target: T2, ERα (Homo sapiens, UniProt P03372); experiment: Counterscreening, Firefly signal with ERα transient transfection (Firefly_ERa); settings: Table 15; 10 uM
T2 construct: expressed in transfected cells
T2 sequence (P03372 1-595): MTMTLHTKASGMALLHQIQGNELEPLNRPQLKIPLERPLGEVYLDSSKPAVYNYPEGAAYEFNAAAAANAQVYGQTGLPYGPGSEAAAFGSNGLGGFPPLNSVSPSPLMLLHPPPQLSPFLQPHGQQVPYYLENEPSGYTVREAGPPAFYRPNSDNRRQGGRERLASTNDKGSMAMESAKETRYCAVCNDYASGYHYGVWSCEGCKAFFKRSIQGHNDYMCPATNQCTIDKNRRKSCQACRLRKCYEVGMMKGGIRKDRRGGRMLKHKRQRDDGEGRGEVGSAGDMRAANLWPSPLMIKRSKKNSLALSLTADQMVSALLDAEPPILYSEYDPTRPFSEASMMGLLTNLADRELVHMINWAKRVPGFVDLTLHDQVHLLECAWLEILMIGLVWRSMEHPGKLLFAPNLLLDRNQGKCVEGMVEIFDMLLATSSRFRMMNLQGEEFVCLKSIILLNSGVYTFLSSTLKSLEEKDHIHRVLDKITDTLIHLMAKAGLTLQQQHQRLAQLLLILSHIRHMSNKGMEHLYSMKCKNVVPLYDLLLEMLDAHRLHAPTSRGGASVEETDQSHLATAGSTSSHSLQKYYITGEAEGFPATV
Method: The methodology for screening candidate compounds as NR2F6 agonists was as follows: For primary screening, hit criteria was ACT %>DMSO control+5*SD (DSO control) at 10 μM, or any compound with S/B>2. For rescreening, hit criteria was ACT %>DMSO control+3*SD (DSO control) in each replicate at 10 μM. For counterscreening, hit criteria was mean ACT<DMSO control+3*SD (DMSO control) with ERα transient transfection in duplicate at 10 μM.

ERα [2] = target: T2, ERα; experiment: as above; settings: Table 15

Firefly F4, cmpd/DMSO (mean) (NR2F6; 2 uM) | Firefly F4, cmpd/DMSO (mean) (NR2F6; 10 uM) | Firefly F4, cmpd/DMSO (mean) (NR2F6; 40 uM) | Firefly ERalpha transient, cmpd/DMSO (mean) (ERα [1]) | Firefly ERalpha transient, cmpd/DMSO (mean) (ERα [2]; 2 uM) | Firefly ERalpha transient, cmpd/DMSO (mean) (ERα [2]; 40 uM) | Structure (SMILES) | fold induction at 2 µM (Renilla) | fold induction at 10 µM (Renilla) | fold induction at 40 µM (Renilla) | fold induction at 2 µM (Renilla_ERa) | fold induction at 10 µM (Renilla_ERa) | fold induction at 40 µM (Renilla_ERa)
0.8 | 1.8 | 0.8 | 1.9 | 1.3 | 0.7 | CCOC(=O)c1cnc2c(C)cc(C)cc2c1N1CCC(C)CC1 [Compound Z76] | 1 | 0.8 | 0.5 | 1.1 | 0.8 | 0.4
1.4 | 1.5 | 1.6 | 2.4 | 1.5 | 1.1 | CCOC(=O)c1cnc2c(C)cc(C)cc2c1N1CCC(O)CC1 [Compound Z78] | 1.1 | 1 | 0.8 | 1 | 0.9 | 0.6
